The values that follow come from US20260015350A1, “AZAQUINAZOLINE PAN-KRAS INHIBITORS” (Mirati Therapeutics, Inc., priority 2022, published 2026).

Assay [1] has as its target T1, KRas^WT (Homo sapiens, UniProt P01116).
T1 construct: Biotinylated KRas (corresponding to amino acids 1-169, produced at Accelegan Inc.); biotin (biotinylated); purchased Accelegan Inc
Description: KRas binding assay (TR-FRET tracer displacement), KRas WT. Particulars: single point, 10 nM compound, TR-FRET.

Assay [2] has as its target T2, KRas^G12A (Homo sapiens, UniProt P01116, G12A).
T2 construct: Biotinylated KRas (corresponding to amino acids 1-169, produced at Accelegan Inc.); biotin (biotinylated); purchased Accelegan Inc
As to the kind of experiment: KRas binding assay (TR-FRET tracer displacement), KRas G12A. Particulars: single point, 10 nM compound, TR-FRET.

For assay [3], the target named is T3, KRas^G12C (Homo sapiens, UniProt P01116, G12C).
T3 construct: Biotinylated KRas (corresponding to amino acids 1-169, produced at Accelegan Inc.); biotin (biotinylated); purchased Accelegan Inc
T3 sequence (P01116 1-169 isoform P01116-2 G12C): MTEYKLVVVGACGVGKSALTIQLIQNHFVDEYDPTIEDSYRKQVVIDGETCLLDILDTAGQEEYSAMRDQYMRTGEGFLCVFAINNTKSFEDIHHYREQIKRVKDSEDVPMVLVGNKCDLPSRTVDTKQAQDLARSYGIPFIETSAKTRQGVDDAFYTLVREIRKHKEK
As to the kind of experiment: KRas binding assay (TR-FRET tracer displacement), KRas G12C. Particulars: single point, 10 nM compound, TR-FRET. For orientation: Time-resolved FRET reads energy transfer from a long-lived donor to a nearby acceptor.

The target of assay [4] is T4, KRas^G12D (Homo sapiens, UniProt P01116, G12D).
T4 construct: Biotinylated KRas (corresponding to amino acids 1-169, produced at Accelegan Inc.); biotin (biotinylated); purchased Accelegan Inc
T4 sequence (P01116 1-169 isoform P01116-2 G12D): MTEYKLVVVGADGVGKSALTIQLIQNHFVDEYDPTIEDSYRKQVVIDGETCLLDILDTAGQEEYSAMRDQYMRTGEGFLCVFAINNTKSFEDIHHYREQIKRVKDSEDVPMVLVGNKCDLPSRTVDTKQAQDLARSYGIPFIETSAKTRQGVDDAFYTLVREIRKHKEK
As to the kind of experiment: KRas binding assay (TR-FRET tracer displacement), KRas G12D.

Assay [5] has as its target T5, KRas^G12R (Homo sapiens, UniProt P01116, G12R).
T5 construct: Biotinylated KRas (corresponding to amino acids 1-169, produced at Accelegan Inc.); biotin (biotinylated); purchased Accelegan Inc
Description: KRas binding assay (TR-FRET tracer displacement), KRas G12R.

The target of assay [6] is T6, KRas^G12S (Homo sapiens, UniProt P01116, G12S).
T6 construct: Biotinylated KRas (corresponding to amino acids 1-169, produced at Accelegan Inc.); biotin (biotinylated); purchased Accelegan Inc
T6 sequence (P01116 1-169 isoform P01116-2 G12S): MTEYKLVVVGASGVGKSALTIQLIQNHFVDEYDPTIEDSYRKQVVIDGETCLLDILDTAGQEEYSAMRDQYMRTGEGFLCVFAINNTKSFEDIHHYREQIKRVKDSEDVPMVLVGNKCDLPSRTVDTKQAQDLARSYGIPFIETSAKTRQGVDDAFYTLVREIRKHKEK
As to the kind of experiment: KRas binding assay (TR-FRET tracer displacement), KRas G12S. Particulars: single point, 10 nM compound, TR-FRET.

The target in assay [7] is T7, KRas^G12V (Homo sapiens, UniProt P01116, G12V).
T7 construct: Biotinylated KRas (corresponding to amino acids 1-169, produced at Accelegan Inc.); biotin (biotinylated); purchased Accelegan Inc
T7 sequence (P01116 1-169 isoform P01116-2 G12V): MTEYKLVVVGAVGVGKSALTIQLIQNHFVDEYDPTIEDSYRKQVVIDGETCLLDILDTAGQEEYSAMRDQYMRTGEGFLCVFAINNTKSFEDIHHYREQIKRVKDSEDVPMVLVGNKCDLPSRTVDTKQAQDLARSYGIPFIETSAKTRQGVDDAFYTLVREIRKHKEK
As to the kind of experiment: KRas binding assay (TR-FRET tracer displacement), KRas G12V.

Assay [8] concerns the target T8, KRas^G13D (Homo sapiens, UniProt P01116, G13D).
T8 construct: Biotinylated KRas (corresponding to amino acids 1-169, produced at Accelegan Inc.); biotin (biotinylated); purchased Accelegan Inc
As to the kind of experiment: KRas binding assay (TR-FRET tracer displacement), KRas G13D. The following applies: single point, 10 nM compound, TR-FRET.

In assay [9] the target is T9, KRas^Q61H (Homo sapiens, UniProt P01116, Q61H).
T9 construct: Biotinylated KRas (corresponding to amino acids 1-169, produced at Accelegan Inc.); biotin (biotinylated); purchased Accelegan Inc
T9 sequence (P01116 1-169 isoform P01116-2 Q61H): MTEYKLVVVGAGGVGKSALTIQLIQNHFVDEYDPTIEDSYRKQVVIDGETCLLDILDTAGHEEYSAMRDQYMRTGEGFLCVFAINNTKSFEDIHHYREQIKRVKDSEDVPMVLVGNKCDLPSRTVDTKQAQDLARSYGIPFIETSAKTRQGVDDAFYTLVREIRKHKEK
Description: KRas binding assay (TR-FRET tracer displacement), KRas Q61H. The following applies: single point, 10 nM compound, TR-FRET.

Assay [10] has as its system KRas-mediated phosphorylation of ERK in MKN1 cells. As to the kind of experiment: Inhibition of KRas-mediated phosphorylation of ERK (Cisbio HTRF pERK), MKN1 cells. Type of assay: cell-based. The following applies: Homo sapiens, MKN-1. A digest of the protocol:
(§1)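 Seeding density was 6,000 cells/well; medium RPMI, 10% FBS. Read-out by homogeneous time-resolved fluorescence (pERK) after 4 hours covered at room temperature.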

Assay [11] relates to KRas-mediated phosphorylation of ERK in PSN1 cells. As to the kind of experiment: Inhibition of KRas-mediated phosphorylation of ERK (Cisbio HTRF pERK), PSN1 cells. Type of assay: cell-based. The following applies: Homo sapiens. A digest of the protocol:
as §1

Assay [12] concerns KRas-mediated phosphorylation of ERK in AsPC-1 cells. Description: Inhibition of KRas-mediated phosphorylation of ERK (Cisbio HTRF pERK), AsPC-1 cells. Type of assay: cell-based. The following applies: Homo sapiens, ASPC1, AsPC-1 cells; HTRF pERK. The essentials:
(§2)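 6,000 cells/well; cpd 10 uM top, 3-fold x10, 0.8% DMSO final; 3 hr incubation; Min ctrl Trametinib 0.2 uM; lysis 40 min 4° C shaking; d2 + Cryptate Ab mix, 2 hr RT; HTRF read.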

For assay [13], the system named is KRas-mediated phosphorylation of ERK in H727 cells. As to the kind of experiment: Inhibition of KRas-mediated phosphorylation of ERK (Cisbio HTRF pERK), H727 cells. Type of assay: cell-based. The following applies: Homo sapiens, NCI-H727, H727 cells; HTRF pERK. The essentials:
as §2

Assay [14] relates to KRas-mediated phosphorylation of ERK in A549 cells. Description: Inhibition of KRas-mediated phosphorylation of ERK (Cisbio HTRF pERK), A549 cells. Type of assay: cell-based. The following applies: Homo sapiens; for inhibition at 0.1 µM: A549, 3 h, single point, 100 nM compound, 3 hrs; for IC50: HTRF pERK. The essentials: (§3)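 Cells were seeded at 6,000 per well and treated for 3 hrs with compound in a 10-dose, 3-fold series from 10 uM (0.8% final DMSO), with 0.2 uM Trametinib as Min control. Lysates made at 4° C over 40 mins were incubated 2 hrs at room temperature with d2- and Cryptate-labelled antibodies, then read by HTRF.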

In assay [15] the test system is KRas-mediated phosphorylation of ERK in H460 cells. As to the kind of experiment: Inhibition of KRas-mediated phosphorylation of ERK (Cisbio HTRF pERK), H460 cells. Type of assay: cell-based. Particulars: Homo sapiens; for IC50: NCI-H460, HTRF pERK. The essentials:
as §2

For assay [16], the system named is KRas-mediated phosphorylation of ERK in H358 cells. As to the kind of experiment: Inhibition of KRas-mediated phosphorylation of ERK (Cisbio HTRF pERK), H358 cells. Type of assay: cell-based. Particulars: Homo sapiens; for inhibition at 0.1 µM: NCI-H358, 3 h, single point, 100 nM compound, 3 hrs. A digest of the protocol: as §2
Assay [17] concerns KRas-mediated phosphorylation of ERK in HCT116 cells. Description: Inhibition of KRas-mediated phosphorylation of ERK (Cisbio HTRF pERK), HCT116 cells. The following applies: Homo sapiens; for IC50: HCT-116, HTRF pERK. Type of assay: cell-based. The essentials: as §3

In general, inhibition refers to the change of the read-out against control, counted positive when it falls. As a reminder, the IC50 is the concentration that gives 50% inhibition. Read a high IC50 as weaker potency in that assay.

T2 sequence (P01116 1-169 isoform P01116-2 G12A): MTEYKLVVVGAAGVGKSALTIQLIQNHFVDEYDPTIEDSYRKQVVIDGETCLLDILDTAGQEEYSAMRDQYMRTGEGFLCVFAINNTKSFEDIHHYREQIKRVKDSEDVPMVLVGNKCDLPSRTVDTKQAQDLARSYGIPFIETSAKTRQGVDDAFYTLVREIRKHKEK
T8 sequence (P01116 1-169 isoform P01116-2 G13D): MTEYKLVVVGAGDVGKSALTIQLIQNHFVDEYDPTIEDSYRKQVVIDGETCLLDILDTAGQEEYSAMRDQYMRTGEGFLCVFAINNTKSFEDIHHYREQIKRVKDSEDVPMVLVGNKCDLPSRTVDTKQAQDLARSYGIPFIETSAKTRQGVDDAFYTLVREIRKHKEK
T5 sequence (P01116 1-169 isoform P01116-2 G12R): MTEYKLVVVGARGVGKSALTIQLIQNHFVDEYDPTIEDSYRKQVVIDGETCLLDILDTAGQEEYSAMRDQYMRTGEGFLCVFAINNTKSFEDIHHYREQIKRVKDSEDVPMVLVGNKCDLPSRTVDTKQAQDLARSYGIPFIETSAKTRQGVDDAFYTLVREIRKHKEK
T1 sequence (P01116 1-169 isoform P01116-2): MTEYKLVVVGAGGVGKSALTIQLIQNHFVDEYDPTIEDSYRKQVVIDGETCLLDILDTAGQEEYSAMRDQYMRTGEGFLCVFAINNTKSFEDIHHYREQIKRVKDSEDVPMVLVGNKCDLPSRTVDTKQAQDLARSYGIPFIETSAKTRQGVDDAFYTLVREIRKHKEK

Consider `CCc1c(F)ccc2cc(O)cc(-c3ncc4c(N5CCCCC(C#N)C5)nc(OC[C@@]56CCCN5C[C@H](F)C6)nc4c3F)c12` (stereo partly drawn) [Example 547, 1-(7-(8-ethyl-7-fluoro-3-hydroxynaphthalen-1-yl)-8-fluoro-2-(((2R,7aS)-2-fluorohexahydro-1H-pyrrolizin-7a-yl)methoxy)pyrido[4,3-d]pyrimidin-4-yl)azepane-3-carbonitrile], for which the inhibition at 0.01 µM in [1] was found to be 68%; in assay [2] it was 49%; in [3], 56%; in assay [6], 58%; in assay [8], 76%; in assay [9], 70%. In addition, the IC50 in assay [4] turned out to be 4 nM; in assay [5] it was 10 nM; in [7], 7 nM; in [10], 16 nM; in assay [11] it was 7520 nM; in assay [12] it was 49 nM. Moreover, the IC50 came to 263 nM in assay [13] and 51 nM in assay [15]. Also, the results for the inhibition at 0.1 µM in assay [14] and in [16] were 33% and 20%, respectively.
For `CCc1c(F)ccc2cc(O)cc(-c3ncc4c(N5CCC[C@@]6(CCO6)C5)nc(OCC5(CN(C)C)CC5)nc4c3F)c12` [Example 700, (R)-4-(2-((1-((dimethylamino)methyl)cyclopropyl)methoxy)-8-fluoro-4-(1-oxa-6-azaspiro[3.5]nonan-6-yl)pyrido[4,3-d]pyrimidin-7-yl)-5-ethyl-6-fluoronaphthalen-2-ol], the inhibition at 0.01 µM in [1] turned out to be 91%; in [2], 83%; in assay [3], 97%; in assay [6] it was 93%; in [8] it was 96%; in assay [9], 96%. In addition, the IC50 was 4 nM in assay [10]; 1320 nM in [11]; 412 nM in [12]; 948 nM in assay [13]; 468 nM in assay [14]; 348 nM in assay [15]. Further, the IC50 in [17] was found to be 784 nM; in assay [16] (NCI-H358, HTRF pERK), 209 nM. The inhibition at 0.1 µM in [14] was 83%; in assay [15] (NCI-H460, 3 h, single point, 100 nM compound, 3 hrs) it was 96%; in [17] (HCT-116, 3 h, single point, 100 nM compound, 3 hrs), 86%; in [16], 103%.
For `CCc1c(F)ccc2cc(O)cc(-c3ncc4c(N5CCC[C@]6(C5)C[C@H](O)C6)nc(OC[C@@]56CCCN5[C@H](COC(=O)N(C)C)CC6)nc4c3F)c12` [Example 712, ((3S,7aS)-7a-(((7-(8-ethyl-7-fluoro-3-hydroxynaphthalen-1-yl)-8-fluoro-4-((2R,4r)-2-hydroxy-6-azaspiro[3.5]nonan-6-yl)pyrido[4,3-d]pyrimidin-2-yl)oxy)methyl)hexahydro-1H-pyrrolizin-3-yl)methyl dimethylcarbamate], the inhibition at 0.01 µM in assay [1] was found to be 86%; in assay [2], 88%; in assay [3], 94%; in [6], 90%; in assay [8] it was 90%; in [9] it was 90%. The IC50 in [4] was 2 nM; in [5], less than 2 nM; in assay [7], less than 2 nM; in assay [10] it was 12 nM; in assay [11] it was 2710 nM; in [12], 15 nM. Further, the IC50 in assay [13] amounted to 30 nM; in assay [15] it was 22 nM. For the same molecule, the inhibition at 0.1 µM is 52% in assay [14] and 95% in assay [16].
Take `CCc1c(F)ccc2cc(O)cc(-c3ncc4c(N5CCC[C@]6(C5)C[C@@H](O)C6)nc(OC[C@@]56CCCN5[C@H](COC(=O)N(C)C)CC6)nc4c3F)c12` [Example 713, ((3S,7aS)-7a-(((7-(8-ethyl-7-fluoro-3-hydroxynaphthalen-1-yl)-8-fluoro-4-((2S,4s)-2-hydroxy-6-azaspiro[3.5]nonan-6-yl)pyrido[4,3-d]pyrimidin-2-yl)oxy)methyl)hexahydro-1H-pyrrolizin-3-yl)methyl dimethylcarbamate]: the inhibition at 0.01 µM was found to be 66% in [1]; 74% in assay [2]; 81% in assay [3]; 76% in [6]; 67% in assay [8]; 69% in assay [9]. For the same molecule, the IC50 worked out at 3 nM in assay [4]; 4 nM in assay [5]; 2 nM in assay [7]; 22 nM in [10]; 3580 nM in assay [11]; 73 nM in assay [12]. The values for the IC50 in assay [13] and in assay [15] were 59 nM and 102 nM, respectively. Moreover, the inhibition at 0.1 µM in [14] worked out at 25%; in assay [16], 60%.
As for `CCc1c(F)ccc2cc(O)cc(-c3ncc4c(N5CCC[C@@](C)(O)C5)nc(OC[C@@]56CCCN5[C@H](COC(=O)N5CCCCC5)CC6)nc4c3F)c12` [Example 721, ((3S,7aS)-7a-(((7-(8-ethyl-7-fluoro-3-hydroxynaphthalen-1-yl)-8-fluoro-4-((R)-3-hydroxy-3-methylpiperidin-1-yl)pyrido[4,3-d]pyrimidin-2-yl)oxy)methyl)hexahydro-1H-pyrrolizin-3-yl)methyl piperidine-1-carboxylate], the inhibition at 0.01 µM in [1] was 89%; in [2] it was 90%; in assay [3], 92%; in assay [6] it was 90%; in assay [8] it was 93%; in [9], 92%. Besides, the IC50 in assay [4] was less than 2 nM; in [5], less than 2 nM; in assay [7], less than 2 nM; in assay [10], 2 nM; in assay [11], 956 nM; in [12], 15 nM. In addition, the IC50 was determined as 28 nM in assay [13], 19 nM in [14], 12 nM in assay [15] and 48 nM in [17].
On to `CCc1cccc2cc3[nH]ncc3c(-c3ncc4c(N5C[C@@H]6C[C@H](C5)[C@H](O)C6)nc(OC[C@@]56CCCN5C[C@H](F)C6)nc4c3F)c12` [Example 767, (1R,5R,6R)-3-(7-(5-ethyl-1H-benzo[f]indazol-4-yl)-8-fluoro-2-(((2R,7aS)-2-fluorohexahydro-1H-pyrrolizin-7a-yl)methoxy)pyrido[4,3-d]pyrimidin-4-yl)-3-azabicyclo[3.2.1]octan-6-ol], for which the inhibition at 0.01 µM in assay [1] came to 48%; in [2], 54%; in assay [3] it was 58%; in assay [6] it was 66%; in [8], 55%; in assay [9] it was 48%. Also, the IC50 in assay [4] was 17 nM; in assay [5] it was 3 nM; in assay [7], 5 nM; in assay [10], 32 nM; in assay [11] it was greater than 10000 nM; in [12] it was 193 nM. The IC50 worked out at 87 nM in [13], 76 nM in assay [14], 64 nM in [15] and 216 nM in assay [17].
